This is an account of results in a melting point compilation (Tetko et al.; mined from patent text by program, amines drawn as free bases though some values may be those of a salt).

`CCOC(=O)c1cnc2ccc(CC)nc2c1Nc1ccc(OC)cc1` yielded a melting point of 145 to 148 °C.
With `CC(C)c1cccc(C(C)C)c1NC(=O)NC1CCOc2ccccc2C1` (configuration not stated) the figure was 184 to 186 °C; with `CCON=C(C)C(C)=NOc1ncccc1C(=NOC)C(=O)NC`, 110 °C.
In turn, `CON=CNC(=O)c1ccc(Br)cc1C` returned a melting point of 119 to 122 °C.
`Cc1nc(-c2cnc3[nH]cc(C(=O)N[C@@H](C(=O)N4CC(C#N)C4)C4CC4)c3n2)cn1CC(F)(F)F` returned a melting point of 255 to 256 °C.
With `FC(F)(F)C(c1ccc(Cl)cc1Cl)c1ccc(Cl)cc1Cl` the figure was 84 to 86 °C.
Then `COc1cc(NC(=O)NS(=O)(=O)c2ccccc2C)nc(OC)n1`, with 174 to 175 °C; and `CC12CCC3c4ccc(C(=O)O)cc4CCC3C1CCC2C(=O)c1ccc(-c2ccccc2)cc1` (configuration not stated), with 268 to 270 °C.
Turning to `O=C(O)c1ccccc1C(=O)NCCC(Oc1c(Br)cc(-c2ccc(-c3c(Cc4ccccc4)sc4ccccc34)cc2)cc1Br)C(=O)O` (configuration not stated), the melting point was in the range of 130 to 132 °C.
The compound `CCCCCCCCCCCCCCCCCCOC(=O)C=CC(=O)OCC` displayed a melting point of 42 °C.
In the case of `CCCCN(CCCC)CCCOc1ccc(-c2cn3cccc(C)c3n2)c(C)c1`, the melting point was 78 to 81 °C.
With `C=C1C(=O)c2ccccc2OC1c1cccc([N+](=O)[O-])c1` (configuration not stated) the figure was 131 to 132 °C; with `O=c1[nH]c(=O)n(CCCCBr)c2nccnc12`, 154 to 155 °C; with `CN(C)c1cccc(OC(=O)NC2C(=O)N(CCC(C)(C)C)c3ccccc3N(c3ccccc3F)C2=O)c1` (configuration not stated), 160 to 161 °C.
On to `Cc1cc(NC(=O)c2c(C(F)(F)F)nc3c(C(F)(F)F)cccc3c2O)no1`, for which the melting point was 216 °C.
Then `CC(C)(CO)NC(=O)c1cccnc1`, with 91 to 93 °C; and `Cc1ccc(CC2(OCc3ccccc3)CCN(CC3Cc4cc(O)ccc4C3O)CC2)cc1` (configuration not stated), with 131 to 132 °C.
Then `COC(=O)c1ccc(OCCCCl)cc1`, with 56.5 to 59 °C; and `COc1cc(CO)cc2c1OCO2`, with 66 to 67 °C.
As for `CSc1ccc2c3c(cccc13)C(=O)N2C(C)C`, the melting point was 70 to 71 °C.
With `CCn1nnc(-c2cccc(-c3ccnc4c(C(=O)c5cccs5)cnn34)c2)n1` the figure was 174 °C; with `O=C(NCc1cccnc1)c1ccc2n1Cc1ccccc1N(C(=O)c1ccc(-c3ncccn3)cc1)C2`, 234 to 236 °C.
In turn, `CC(C)(C)OC(=O)Nc1ccc(-c2ccc(OC(F)(F)F)cc2)cc1[N+](=O)[O-]` returned a melting point of 145 to 147 °C.
Then `COc1ccc(C=Cc2cccc(C(=O)O)c2)cc1OC1CCCC1`, with 93 to 94 °C; and `CS(=O)(=O)c1ccc(C2=C(c3ccccc3)C(=O)N(C3CC3)C2)cc1`, with 144 to 146 °C; and `COc1cc(Br)c(O)c([N+](=O)[O-])c1`, with 116 to 118 °C.
`CSc1ccc(C(=O)c2c(C)cc3n2CCC3C(=O)O)n1C` (configuration not stated) registered a melting point of 182 to 184 °C.
With `CC(=O)Oc1ccccc1C=C1CCCc2cc(C)cnc21` the figure was 85 to 87 °C; with `N#Cc1ccc(-c2cc(Oc3cccc4ccc(N)nc34)ncn2)cc1`, 234 to 236 °C; with `S=C1Nc2c(Cl)cccc2CS1`, 125 to 126 °C.
Then `Cc1cccc(C=NNC(=O)c2ccc(O)cc2)c1`, with 242 °C; and `O=[N+]([O-])C=C1C2CC3CC(C2)CC1C3`, with 78 to 81 °C; and `CCOCc1nc2c(N)nc3cc(Br)ccc3c2n1CC1COC(C)(C)O1` (configuration not stated), with 176 to 177 °C.
Then `Cc1ccccc1C(=O)Nc1nc2ccccc2c(=O)n1C`, with 185 to 186 °C.
The compound `CC(=O)OC1CSC(Oc2cc(Br)cnc2Cl)C(OC(C)=O)C1OC(C)=O` (configuration not stated) registered a melting point of 143 to 147 °C.
With `O=C(NC(Cc1ccc(OCc2ccccc2)cc1)C(=O)NC1C(C(=O)O)OC(n2cnc3c(NC(=O)c4ccccc4)ncnc32)C1O)OCc1ccccc1` (configuration not stated) the figure was 150 to 155 °C; with `O=Cc1cc2ccccc2nc1N1CCN(CC2CCCCC2)CC1`, 54 to 55 °C.
Then `CCOc1nc(NC(CC)CC)c([N+](=O)[O-])c(OCC)n1`, with 38 to 40 °C; and `Cc1cccc(-c2nc(Nc3ccc(Cl)cc3)c3ccccc3n2)n1`, with 256 to 259 °C; and `CCSc1ccc(NC(=S)NC(=O)OC)c(N)c1`, with 168 °C.
With `CCOC(=O)c1ccc(NC(=O)C=C(c2ccc(C)cc2)c2ccc(C)cc2)cc1` the figure was 151 to 154 °C; with `COc1ccc(C(=CC=Cc2ccc(N(c3ccc(C)cc3)c3ccc(C)cc3)cc2)c2ccc(OC)cc2)cc1`, 133 to 135 °C; with `CC12CCC3C(CC4OC45CC=CCC35C)C1CC=C2Br` (configuration not stated), 146 to 147 °C.
As for `O=C(O)C(Cl)=C(Cl)C(=O)O`, the melting point lay within 107 to 110 °C.
Then `CCNC(=O)c1c([Si](C)(C)C)ccc(Cl)c1Cl`, with 96 to 98 °C.
Then `CC1(C)C=C(c2ccccc2)c2cccc3c2N1C(=O)C3=O`, with 210 to 212 °C; and `COc1ccc(C(=O)Nc2ccccc2)cc1NS(=O)(=O)c1cccc(C#N)c1`, with 195 to 197 °C.
`Cc1cncc(C(=O)Nc2cc(-c3c(-c4ccc(F)c(C)c4)nc4cccnn34)ccn2)c1` yielded a melting point of 238 to 240 °C.
The compound `CCCCC1N=C(Cl)/C(=C2\C(=O)Nc3ccccc32)N1Cc1ccc(C(=O)O)cc1` (configuration not stated) returned a melting point of 241 to 242 °C.
On to `CS(=O)(=O)CC(=O)N[C@H]1CC[C@H](CCN2CCN(c3nccc4ccoc34)CC2)CC1`, for which the melting point is 182 °C.
With `CCOC(=O)c1c(Cl)c2cccnc2n(C)c1=O` the figure was 132 to 135 °C; with `O=C(NO)c1cnc(N(CCO)Cc2cc3nc(-c4cccc5[nH]ncc45)nc(N4CCOCC4)c3s2)nc1`, 190 to 194 °C; with `Cc1cccc(-c2cn(C)cc(-c3cccc(C(F)(F)F)c3)c2=O)c1`, 155 to 157 °C.
Turning to `CC(=O)N1CCN=C1Nc1cc(-c2ccccc2)nn1C`, the melting point is 154 to 155 °C.
`O=c1[nH]c2cccnc2n1-c1ccc2c(c1)OCO2` yielded a melting point of 256 to 258 °C.
Compound `CN1CC(CN2CCC(C(O)(c3ccc(F)cc3)c3ccc(F)cc3)CC2)OC1=O` (configuration not stated) came in with a melting point of 147 to 148 °C.
In turn, `Cc1nnc(-c2ccc3occ(-c4ccc(S(C)(=O)=O)c(OC(F)(F)F)c4)c3c2)o1` showed a melting point of 218 to 219 °C.
`CC(C)CCSC1=C(O)CC(C)(C)CC1=O` came in with a melting point of 59 to 61 °C.
Take `COC(=O)CCCc1cc2nc(Cl)ccc2n1S(=O)(=O)c1cccc(C(F)(F)F)c1`: the melting point was determined as 97 °C.
As to `O=C(O)C1(c2ccc(Nc3nc(N4CCC(O)CC4)nc4c3CCC4)cc2)CCC1`, the melting point lay in the range of 165 to 167 °C.
Then `Cc1oc(-c2ccccc2)nc1COc1ccc2c(c1)CCC(C=O)=C2`, with 114 to 115 °C; and `CC(C)C[C@H](N)C(=O)NCCCCCNC(=O)OCc1ccccc1`, with 145 to 146 °C.
